Measurements reported in paper PMC9695821, “Synthesis and Evaluation of NF-κB Inhibitory Activity of Mollugin Derivatives” (Molecules, 2022).
Marks after values point to notes of the source that are not given here.

Key:
xylene-induced ear edema [1] = experiment: Xylene-induced ear edema test, initial screening (i.p.); assay type: in vivo; conditions: mice; for inhibition in vivo at 100 mg/kg: Mus musculus, ip, 0.5 h, n = 6, read-out: Inhibition Rate; for Edema Mean ± SD: 100 mg/kg, n = 6
Description: In vivo inhibition test of xylene induced ear edema in mice was performed to evaluate its anti-inflammatory activity.
In the initial screening, mice (male) were randomly divided into experimental group, positive control drug ibuprofen and Mesalazine group, and blank group. All target compounds were dissolved in dimethyl sulfoxide, and corresponding drugs were intraperitoneally injected into experimental group, positive control group and blank group, respectively. Mice were treated with 100 mg/kg, 0.1 mL/20 g body weight, and control mice received only DMSO (0.1 mL/20 g body weight). After 30 min, 20 μL of xy-lene was evenly applied on both sides of the right ear of the mice. After 30 min of xy-lene was applied, the mice were sacrificed by cutting off their necks. Then the left and right ears of the mice were drilled with a hole punch with a diameter of 7 mm, respec-tively, to obtain two round ear pieces. The degree of swelling (right ear mass–left ear mass) was calculated for each sample, and the swelling inhibition rate of each drug was calculated using the following formula. The inhibition rate of swelling degree (%) = (mean ear swelling degree of mice in blank group […] mean ear swelling degree of mice in target compound group)/mean ear swelling degree of mice in blank group × 100%. The data were processed by GraphPadPrism 5 and expressed as mean data ± SEM. One-way ANOVA method was used for statistical analysis of relevant data. A value of p < 0.05 in the chart indicates significant and statistically significant data dif-ference.

HeLa cells = experiment: MTT cytotoxicity / cell viability assay; assay type: cell-based; conditions: for IC50 Cytotoxicity: MTT assay, 24 h treatment, normoxic conditions, mean, n = 3
Description: (§1) HeLa cells were inoculated and cultured in 96-well plates. After the cells adhered to the wall, the prepared target compounds with different concentrations were added to all plates for 24 h and then cultured in 5 mg/mL MTT solution for 4 h. The culture solution in the holes was sucked out, and DMSO reagent was added. After the crystallization was fully dissolved, the absorbance at 570 nm was measured by Multiskan GO.

[2] = MTT cytotoxicity / cell viability assay; assay type: cell-based; conditions: human; MTT assay, HeLa cells, 24 h treatment, normoxic conditions; mean, n = 3
Description: as §1

[3] = tested on: NF-κB transcriptional activity; experiment: NF-κB luciferase reporter assay in HeLa cells; assay type: cell-based; conditions: for IC50: Homo sapiens, NF-κB luciferase reporter, 24 h treatment, hypoxic conditions, mean, n = 3
Description: A NF-κB-Luc plasmid for NF-κB luciferase reporter assay was obtained from Strategene (La Jolla, CA, USA). Transfections were performed as previously described. NF-κB-dependent luciferase activity was measured using the Dual-luciferase reporter assay system. Briefly, HeLa cells (1 × 10^5 cells/well) were seeded in a 96-well plate for 24 h. The cells were then transfected with plasmids for each well and then incubated for a transfection period of 24 h. […] Luciferase activity was determined in MicroLumat plus luminometer (EG&G Berthold, Bad Wildbad, Germany) by injecting 100 µL of assay buffer containing luciferin and measuring light emission for 10 s. Co-transfection with pRL-CMV (Promega, Madison, WI, USA), which expresses Renilla luciferase, was performed to enable normalization of data for transfection efficiency.

p65 = experiment: Western blot of nuclear extracts, TNF-α-induced p65; assay type: cell-based
xylene-induced ear edema [4] = experiment: Xylene-induced ear edema test, deep screening (oral); assay type: in vivo; conditions: mice
Description: In the deep screening, mice were divided into target compound group, positive control group (ibuprofen), and blank group (8 male mice in each group). Target com-pound and ibuprofen were dissolved in sodium carboxymethyl cellulose aqueous solu-tion (sodium carboxymethyl cellulose to water, mass ratio 1:1000); the blank group was sodium carboxymethyl cellulose aqueous solution (sodium carboxymethyl cellu-lose to water, mass ratio 1:1000). The anti-inflammatory activities of each compound in the target compound group, positive control group, and blank group were measured at 1, 2, 3, 4, 6, 9, 12 and 24 h after taking the drug. The experimental operation and calculation method are the same as the initial screening part.

| Structure (SMILES) | melting point [°C] | inhibition in vivo at 100 mg/kg (xylene-induced ear edema [1]) [%] | Edema Mean ± SD (xylene-induced ear edema [1]) [mg] | IC50 Cytotoxicity (HeLa cells) | IC50 at 24 h [2] [µM] | IC50 [3] [µM] | TNF-α-induced expression of p65 (p65; HeLa cells, 100 µM) | TNF-α-induced p65 phosphorylation (p65; HeLa cells, 10, 30, 100 µM for 12 h, then 10 ng/mL TNF-α 30 min, nuclear extracts) | cell viability (HeLa cells; 30 µM, 24 h, Figure 2B) | Inhibition (xylene-induced ear edema [4]; 100 mg/kg, time 1 h) [% ***] | Inhibition (xylene-induced ear edema [4]; 100 mg/kg, time 2 h) [% ***] | Inhibition (xylene-induced ear edema [4]; 100 mg/kg, time 3 h) [% ***] | Inhibition (xylene-induced ear edema [4]; 100 mg/kg, time 4 h) [% ***] | Inhibition (xylene-induced ear edema [4]; 100 mg/kg, time 9 h) [% ***] | Inhibition (xylene-induced ear edema [4]; 100 mg/kg, time 12 h) [% ***] | Inhibition (xylene-induced ear edema [4]; 100 mg/kg, time 24 h) [% ***] | Inhibition (xylene-induced ear edema [4]; dose series, 25 mg/kg, 6 h) [% **] | Inhibition (xylene-induced ear edema [4]; dose series, 50 mg/kg, 6 h) [% ***] | inhibition of NF-κB luciferase activity, dose dependence ([3]; Figure 2A) |
| --- | --- | --- | --- | --- | --- | --- | --- | --- | --- | --- | --- | --- | --- | --- | --- | --- | --- | --- | --- |
| COC(=O)c1c2c(c3ccccc3c1OCC(=O)Nc1ccc(C)cc1)OC(C)(C)C=C2 [Compound 4e, Methyl 2,2-dimethyl-6-(2-oxo-2-(p-tolylamino)ethoxy)-2H-benzo [h] chromene-5-carboxylate] | 120 to 122 | 41.4 | 3.8667 ± 1.2023 | no significant cell toxicity | > 100 | 55.1 | – | – | – | – | – | – | – | – | – | – | – | – | – |
| COC(=O)c1c2c(c3ccccc3c1OCC(=O)Nc1ccc(OC)cc1)OC(C)(C)C=C2 [Compound 4d, Methyl 6-(2-((4-methoxyphenyl)amino)-2-oxoethoxy)-2,2-dimethyl-2H-benzo [h] chromene-5-carboxylate] | 126 to 128 | 61.9 | 2.5167 ± 0.6890 | no significant cell toxicity | > 100 | 88.2 | – | – | – | – | – | – | – | – | – | – | – | – | – |
| COC(=O)c1c2c(c3ccccc3c1OCC(=O)Nc1ccc(CC#N)cc1)OC(C)(C)C=C2 [Compound 4i, Methyl 6-(2-((4-(cyanomethyl)phenyl)amino)-2-oxoethoxy)-2,2-dimethyl-2H-benzo [h] chromene-5-carboxylate] | 115 to 117 | 59.1 | 2.7000 ± 0.4619 | no significant cell toxicity | > 100 | 22.9 | – | – | – | – | – | – | – | – | – | – | – | – | – |
| COC(=O)c1c2c(c3ccccc3c1OCC(=O)NC(c1ccccc1)c1ccccc1)OC(C)(C)C=C2 [Compound 6g, Methyl 6-(2-(benzhydrylamino)-2-oxoethoxy)-2,2-Dimethyl-2H-benzo [h] chromene-5-carboxylate] | 127 to 129 | 58.6 | 2.7333 ± 0.4819 | – | > 100 | > 100 | – | – | – | – | – | – | – | – | – | – | – | – | – |
| COC(=O)c1c2c(c3ccccc3c1OCC(=O)Nc1ccc3ncccc3c1)OC(C)(C)C=C2 [Compound 6d, Methyl 2,2-dimethyl-6-(2-oxo-2-(quinolin-6-ylamino)ethoxy)-2H-benzo [h] Chromene-5-carboxylate] | 135 to 137 | 76.8 | – | did not show any significant cytotoxicity | > 100 | 3.81 | inhibited TNF-α-induced expression of p65 | significantly inhibited TNF-α-induced p65 phosphorylation in a dose-dependent manner | did not adversely affect the cell viability | 25.76 | 33.84 | 41.92 | 52.53 | 37.63 | 31.82 | 25.25 | 41.92 | 46.32 | dose-dependent inhibition |
| COC(=O)c1c2c(c3ccccc3c1OCC(=O)Nc1ccc(F)cc1)OC(C)(C)C=C2 [Compound 4f, Methyl 6-(2-((4-fluorophenyl)amino)-2-oxoethoxy)-2,2-dimethyl-2H-benzo [h] chromene-5-carboxylate] | 132 to 134 | 83.1 | 1.1167 ± 0.2544 | no significant cell toxicity | > 100 | 18.5 | – | – | – | 27.53 | 37.12 | 46.46 | 58.08 | 43.94 | 35.35 | 26.01 | 46.46 | 53.08 | – |
| COC(=O)c1c2c(c3ccccc3c1OCC(=O)Nc1cccc3cccnc13)OC(C)(C)C=C2 [Compound 6j, Methyl 2,2-dimethyl-6-(2-oxo-2-(quinolin-8-ylamino)ethoxy)-2H-benzo [h] chromene-5-carboxylate] | 113 to 115 | 75.2 | 1.6333 ± 0.4384 | – | > 100 | 18.6 | – | – | – | – | – | – | – | – | – | – | – | – | – |
| COC(=O)c1c2c(c3ccccc3c1OCC(=O)Nc1ccccc1)OC(C)(C)C=C2 [Compound 4a, Methyl 2,2-dimethyl-6-(2-oxo-2-(phenylamino)ethoxy)-2H-benzo [h] chromene-5-carboxyate] | 118 to 120 | 38.6 | 4.0500 ± 0.6188 | – | > 100 | > 100 | – | – | – | – | – | – | – | – | – | – | – | – | – |
| COC(=O)c1c2c(c3ccccc3c1OCC(=O)Nc1ccncc1)OC(C)(C)C=C2 [Compound 6e, Methyl 2,2-dimethyl-6-(2-oxo-2-(pyridin-4-ylamino)ethoxy)-2H-benzo [h] chromene-5-carboxylate] | 126 to 128 | 65.9 | 2.2500 ± 0.3403 | – | > 100 | > 100 | – | – | – | – | – | – | – | – | – | – | – | – | – |
| COC(=O)c1c2c(c3ccccc3c1OCCBr)OC(C)(C)C=C2 [Compound 8a, Methyl 6-(2-bromoethoxy)-2,2-dimethyl-2H-benzo [h] chromene-5-carboxylate] | 110 to 112 | 57.3 | 2.8167 ± 0.9370 | – | > 100 | > 100 | – | – | – | – | – | – | – | – | – | – | – | – | – |
| COC(=O)c1c2c(c3ccccc3c1OCC(=O)NC1CC1)OC(C)(C)C=C2 [Compound 6f, Methyl 6-(2-(cyclopropylamino)-2-oxoethoxy)-2,2-dimethyl-2H-benzo [h] chromene-5-carboxylate] | 134 to 136 | 57.3 | 2.8167 ± 0.6962 | – | > 100 | > 100 | – | – | – | – | – | – | – | – | – | – | – | – | – |
